Data taken from US7928238B2, “1,2,3,4-tetrahydro-quinoline derivatives as CETP inhibitors” (Janssen Pharmaceutica NV, priority 2006, dated 2011).
Where “and” joins values, the source holds several entries; their conditions need not be identical. Equal values may be shown once. Read-outs that look alike come from different tables or passages of the source.

Target: T1, CETP (Homo sapiens, UniProt P11597)
T1 construct: from tissue; host or cells: human plasma from normal volunteers
T1 sequence (P11597 18-493): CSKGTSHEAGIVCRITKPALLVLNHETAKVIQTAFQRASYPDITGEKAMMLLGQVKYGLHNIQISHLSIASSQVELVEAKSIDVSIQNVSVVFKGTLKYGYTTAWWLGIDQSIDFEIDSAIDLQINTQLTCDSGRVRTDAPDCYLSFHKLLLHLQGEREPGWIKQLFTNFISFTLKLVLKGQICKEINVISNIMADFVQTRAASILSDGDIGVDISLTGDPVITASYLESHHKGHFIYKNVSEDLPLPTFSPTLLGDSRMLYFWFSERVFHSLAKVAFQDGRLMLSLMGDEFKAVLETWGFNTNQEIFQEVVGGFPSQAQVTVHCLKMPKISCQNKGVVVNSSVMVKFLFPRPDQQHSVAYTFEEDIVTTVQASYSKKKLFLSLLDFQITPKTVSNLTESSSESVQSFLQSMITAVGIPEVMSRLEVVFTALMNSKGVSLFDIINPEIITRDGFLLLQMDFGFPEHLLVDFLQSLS
Experiment: CETP in vitro assay (Amersham kit TRKQ7005; modified protocol in human plasma, [3H]CE-HDL transfer)
Format: biochemical
Conditions: for IC50: from plots of % control versus compound concentration
Procedure: The CETP inhibitory activity of the compounds was determined using a commercially available kit from Amersham Biosciences (Catalog #TRKQ7005).
Briefly, 80 μl of human plasma (obtained from normal volunteers), approximately 25 μg/ml (20 μl) of [^3H]CE-HDL (Amersham Biosciences from kit TRKQ7005) and 1 μl of compound dissolved in DMSO was incubated for at least 4 hrs at 37° C. and non-specific transfer was determined by incubating a corresponding plate at 4° C. (blank). After the incubation period, 10 μl of a solution of 1% Dextralip 50/0.5M MgCl2, pH 7.4 was added, vortexed and incubated at room temperature for 10 min. The plate was then centrifuged for 30 min at 10° C. at 300 rpm in a Sorvall RT6000B centrifuge. Fifty microliters of the supernatant was transferred to a Picoplate (Packard) containing 100 μl of Microscint 40 (Perkin Elmer) and mixed for 30 min using a plate mixer. The radioactivity was counted using a TopCount (Perkin Elmer) and the % control was determined in the samples using the following formula: % transfer relative to vehicle controls (% control)=[cpm blank−cpm test]/cpm blank/cpm control]×100. IC50s were calculated from plots of the % control versus compound concentration.

[1] = 1 μM compound, read-out: % Inhibition @ 1 μM

Row | Structure (SMILES) | % Inhibition @ 1 μM (1 μM compound) | inhibition at 1 µM [1] [%] | also measured
1 | O[C@H](CN1c2cccc(-c3cccc(OC(F)(F)F)c3)c2CC[C@H]1c1cccc(OC(F)(F)C(F)F)c1)C(F)(F)F [Compound 81, (2S, αR)-3,4-Dihydro-2-[3-(1,1,2,2-tetrafluoroethoxy)phenyl]-5-[3-(trifluoromethoxy)phenyl]-α-(trifluoromethyl)-1(2H)-quinolineethanol] | 36% | 46 | IC50: 0.03 µM
2 | OC(CN1c2cccc(-c3cccc(OC(F)(F)F)c3)c2CCC1c1ccccc1OC(F)(F)C(F)F)C(F)(F)F (stereo not drawn) [Compound 89, 1,1,1-Trifluoro-3-[2-[2-(1,1,2,2-tetrafluoro-ethoxy)-phenyl]-5-(3-trifluoromethoxy-phenyl)-3,4-dihydro-2H-quinolin-1-yl]-propan-2-ol] | 9% | – | –
3 | COc1cccc(-c2cccc3c2CC[C@@H](c2cccc(OC(F)(F)F)c2)N3C[C@@H](C)O)c1 [Compound 60] | – | 5 | –
4 | CCC1CCc2c(-c3cccc(OC(F)(F)F)c3)cccc2N1Cc1cccc(OC(F)(F)F)c1 (stereo not drawn) [Compound 39, 2-Ethyl-1-(3-trifluoromethoxy-benzyl)-5-(3-trifluoromethoxy-phenyl)-1,2,3,4-tetrahydro-quinoline] | – | 17 | –
5 | OC(CN1c2cccc(-c3cccc(Cl)c3)c2CCC1c1cccc(OC(F)(F)C(F)F)c1)C(F)(F)F (stereo not drawn) [Compound 16, 3-{5-(3-Chloro-phenyl)-2-[3-(1,1,2,2-tetrafluoro-ethoxy)-phenyl]-3,4-dihydro-2H-quinolin-1-yl}-1,1,1-trifluoro-propan-2-ol] | – | 55 | –
6 | OC(CN1c2cccc(-c3cccc(OC(F)(F)F)c3)c2CCC1C1CCCCC1)C(F)(F)F (stereo not drawn) [Compound 37, 3-[2-Cyclohexyl-5-(3-trifluoromethoxy-phenyl)-3,4-dihydro-2H-quinolin-1-yl]-1,1,1-trifluoro-propan-2-ol] | 11% | – | –
7 | OC(CN1c2cccc(-c3cccc(OC(F)(F)F)c3)c2CCC1c1ccccc1)C(F)(F)F (stereo not drawn) [Compound 19, 1,1,1-Trifluoro-3-[2-phenyl-5-(3-trifluoromethoxy-phenyl)-3,4-dihydro-2H-quinolin-1-yl]-propan-2-ol] | 21% | – | –
8 | Oc1cccc(-c2cccc3c2CCC(c2cccc(OC(F)(F)C(F)F)c2)N3CC(O)C(F)(F)F)c1 (stereo not drawn) [Compound 43, 3-[2-[3-(1,1,2,2-Tetrafluoro-ethoxy)-phenyl]-1-(3,3,3-trifluoro-2-hydroxy-propyl)-1,2,3,4-tetrahydro-quinolin-5-yl]-phenol] | 23% | – | –
9 | O[C@@H](CN1c2cccc(-c3cccc(F)c3)c2CC[C@@H]1c1cccc(OC(F)(F)C(F)F)c1)C(F)(F)F [Compound 82, (2R, αS)-3,4-Dihydro-2-[3-(1,1,2,2-tetrafluoroethoxy)phenyl]-5-[3-(fluoro)phenyl]-α-(trifluoromethyl)-1(2H)-quinolineethanol] | 76% | 84 | IC50: 0.122 µM and 0.093 µM
10 | COc1cccc(C2CCc3c(-c4cccc(OC(F)(F)F)c4)cccc3N2CC(O)C(F)(F)F)c1 (stereo not drawn) [Compound 26, 1,1,1-Trifluoro-3-[2-(3-methoxy-phenyl)-5-(3-trifluoromethoxy-phenyl)-3,4-dihydro-2H-quinolin-1-yl]-propan-2-ol] | 4% | – | –
11 | OC(CN1c2cccc(-c3ccsc3)c2CCC1c1cccc(OC(F)(F)C(F)F)c1)C(F)(F)F (stereo not drawn) [Compound 65, 1,1,1-Trifluoro-3-{2-[3-(1,1,2,2-tetrafluoro-ethoxy)-phenyl]-5-thiophen-3-yl-3,4-dihydro-2H-quinolin-1-yl}-propan-2-ol] | 16% | – | –
12 | OC(CN1c2cccc(-c3cccc(OC(F)(F)F)c3)c2CCC1c1ccc(OC(F)(F)C(F)F)cc1)C(F)(F)F (stereo not drawn) [Compound 22, 1,1,1-Trifluoro-3-[2-[4-(1,1,2,2-tetrafluoro-ethoxy)-phenyl]-5-(3-trifluoromethoxy-phenyl)-3,4-dihydro-2H-quinolin-1-yl]-propan-2-ol] | 14% | – | –
13 | OC(CN1c2cccc(-c3cccc(OC(F)(F)F)c3)c2CCC1C1CCCCC1)C(F)(F)F (stereo not drawn) [Compound 38, 3-[2-Cyclohexyl-5-(3-trifluoromethoxy-phenyl)-3,4-dihydro-2H-quinolin-1-yl]-1,1,1-trifluoro-propan-2-ol] | 2% | – | –
14 | OC(CN1c2cccc(-c3ccsc3)c2CCC1c1cccc(OC(F)(F)C(F)F)c1)C(F)(F)F (stereo not drawn) [Compound 64, 1,1,1-Trifluoro-3-{2-[3-(1,1,2,2-tetrafluoro-ethoxy)-phenyl]-5-thiophen-3-yl-3,4-dihydro-2H-quinolin-1-yl}-propan-2-ol] | 61% and 70% and 78% | – | IC50: 0.3 µM
15 | C[C@@H](O)CN1c2cccc(-c3cccc(F)c3)c2CC[C@@H]1c1cccc(OC(F)(F)C(F)F)c1 [Compound 77, (αR,2R)-5-(3-Fluorophenyl)-3,4-dihydro-α-methyl-2-[3-(1,1,2,2-tetrafluoroethoxy)phenyl]-1(2H)-quinolineethanol] | 48% | 38 | –
16 | C[C@@H](O)CN1c2cccc(-c3cccc(F)c3)c2CC[C@H]1c1cccc(OC(F)(F)F)c1 [Compound 56] | – | 0 | –
17 | OC(CN1c2cccc(-c3cccc(C(F)(F)F)c3)c2CCC1c1cccc(OC(F)(F)C(F)F)c1)C(F)(F)F (stereo not drawn) [Compound 14] | 37% | – | –
18 | CC(C)Oc1cccc(-c2cccc3c2CCC(c2cccc(OC(F)(F)C(F)F)c2)N3CC(O)C(F)(F)F)c1 (stereo not drawn) [Compound 69, 1,1,1-Trifluoro-3-{5-(3-isopropoxy-phenyl)-2-[3-(1,1,2,2-tetrafluoro-ethoxy)-phenyl]-3,4-dihydro-2H-quinolin-1-yl}-propan-2-ol] | 18% | – | –
19 | COC[C@@H](O)CN1c2cccc(-c3cccc(OC(F)(F)F)c3)c2CC[C@H]1c1cccc(OC(F)(F)F)c1 [Compound 52] | – | 0 | –
20 | COc1cccc(-c2cccc3c2CCC(c2cccc(OC(F)(F)C(F)F)c2)N3CC(O)C(F)(F)F)c1 (stereo not drawn) [Compound 73, 1,1,1-Trifluoro-3-{5-(3-methoxy-phenyl)-2-[3-(1,1,2,2-tetrafluoro-ethoxy)-phenyl]-3,4-dihydro-2H-quinolin-1-yl}-propan-2-ol] | 50% and 26% | – | –
21 | OC(CF)CN1c2cccc(-c3cccc(OC(F)(F)F)c3)c2CCC1c1cccc(OC(F)(F)F)c1 (stereo not drawn) [Compound 49, 1-[2,5-Bis-(3-trifluoromethoxy-phenyl)-3,4-dihydro-2H-quinolin-1-yl]-3-fluoro-propan-2-ol] | 63% and 77% | – | IC50: 0.331 µM
22 | OC(CN1c2cccc(-c3cccc(Cl)c3)c2CCC1c1cccc(OC(F)(F)C(F)F)c1)C(F)(F)F (stereo not drawn) [Compound 15, 3-{5-(3-Chloro-phenyl)-2-[3-(1,1,2,2-tetrafluoro-ethoxy)-phenyl]-3,4-dihydro-2H-quinolin-1-yl}-1,1,1-trifluoro-propan-2-ol] | 66% | – | IC50: 0.068 µM and 0.059 µM; inhibition at 1 µM (read-out: % Inhibition @ 1 μM, 1 μM compound): 68%
23 | C[C@@H](O)CN1c2cccc(-c3cccc(OC(F)(F)F)c3)c2CC[C@H]1c1cccc(OC(F)(F)F)c1 [Compound 54] | – | 13 | –
24 | C[C@@H](O)CN1c2cccc(-c3cccc(Cl)c3)c2CC[C@H]1c1cccc(OC(F)(F)F)c1 [Compound 41] | – | 3 | –
